Patent publication US10022449B2, “Synergistic antiviral composition and use thereof” (priority 2009, dated 2018)

Key:
[1] = system: influenza A/PR/8/34 virus; assay: Survival of mice infected with lethal influenza virus, treatment starting 48 hours post infection (Example 1); type: in vivo, C57B16 mice; settings: lethal dose (10x LD50) i.n.; treatment from 48 hours post infection, twice daily; iota-carrageenan 1200 μg/ml 25 μl per nostril i.n.; TAMIFLU 10 mg/kg/d per os; 10 mice per group
Description: (§1) 40 C57B16 mice were infected with a lethal dose (10× LD50) of influenza A/PR/8/34 virus by intranasal instillation (i.n.) without anaesthesia. After infection of the nasal cavity the virus spreads in the respiratory tract and finally causes a lethal pneumonia in mice. This model mimics the natural influenza infection in humans via the respiratory tract that sometimes causes severe conditions.
The mice were divided into four groups of 10 mice each. 48 hours post infection the mice were treated twice daily i.n. without anaesthesia, wherein the first group was treated with a placebo (25 μl 0.5% aqueous NaCl-solution per nostril) as a negative control and the second group was treated solely with 25 μl per nostril of a aqueous iota-carrageenan polymer solution at a concentration of 1200 μg/ml. Group three and four were fed with 10 mg/kg/d of TAMIFLU® per os, wherein the third group additionally received the iota-carrageenan polymer intranasally at the above concentration whereas the fourth group received the intranasal placebo treatment in addition to the oral Tamiflu® administration. […] The survival of the animals was determined daily as a surrogate parameter for health. The difference in the number of surviving animals was evaluated using a log-rank test.

[2] = system: influenza A/PR/8/34 virus; assay: Mean weight of mice infected with lethal influenza virus, treatment starting 24 hours post infection (Example 2); type: in vivo, C57B16 mice; settings: treatment from 24 hours post infection; single actives: first seven days; combination: from day 3 onwards (pmax<0,004), t-test
[3] = system: influenza A/PR/8/34 virus; assay: Survival of influenza-infected mice, iota-carrageenan and oseltamivir, treatment starting 48 hours post infection (Example 3); type: in vivo; settings: treatment from 48 hours post infection, twice daily; oseltamivir 5 mg/kg/d orally; iota-carrageenan 1200 μg/ml i.n. (120 μg per day); 10 mice per group
Excerpt: as §1
The infection of the mice was done as described in Example 1. The mice were divided into four groups of 10 mice each. 48 hours post infection the mice were treated twice daily i.n. without anaesthesia, wherein the first group was treated with a placebo (25 μl 0.5% aqueous NaCl-solution per nostril) as a negative control, the second group was treated orally with oseltamivir at a dosage of 5 mg/kg/d, the third group was treated with 25 μl per nostril of an aqueous iota-carrageenan polymer solution at a concentration of 1200 μg/ml, and the fourth group was treated with a combination of iota-carrageenan and oseltamivir twice daily, wherein oseltamivir was administered orally at a dosage of 5 mg/kg/d and the total amount of iota-carrageenan administered intranasally was 100 μl corresponding to an amount of 120 μg per day. The survival of the animals was determined daily as a surrogate parameter for health. The difference in the number of surviving animals was evaluated using a log-rank test.

[4] = system: influenza virus; settings: cited from earlier work; for reduction of median time until detection of symptom alleviation: individuals of the YOPI group (young, old, pregnant, immunocompromised); for reduction of median time until detectable symptom alleviation: non-risk adults group (not YOPI)
[5] = system: influenza A/PR/8/34 virus; assay: Survival of influenza-infected mice, iota-/kappa-carrageenan and zanamivir, treatment starting 48 hours post infection (Example 4); type: in vivo; settings: treatment from 48 hours post infection; zanamivir 0.5 mg/kg/d intranasally; carrageenan polymer 120 μg per day intranasally; 20 mice per group
[6] = cited from earlier work

With `CCOC(=O)C1=C[C@@H](OC(CC)CC)[C@H](NC(C)=O)[C@@H](N)C1` [TAMIFLU®, oseltamivir phosphate] the “survival of mice (survivors out of 10)” value [1] was 3/10 and the “weight loss compared to placebo treatment” value [2] was “failed to provide a significant benefit with regard to weight loss”.
In the case of `CCOC(=O)C1=C[C@@H](OC(CC)CC)[C@H](NC(C)=O)[C@@H](N)C1` [oseltamivir], the “survival of mice (survivors out of 10)” value [3] is listed as 3/10, the “reduction of median time until detection of symptom alleviation” value [4] is listed as 0.74 days and the “reduction of median time until detectable symptom alleviation” value [4] is listed as 0.55 days.
For `CC(=O)N[C@H]1[C@H]([C@H](O)[C@H](O)CO)OC(C(=O)O)=C[C@@H]1N=C(N)N` [zanamivir], the “survival of mice (survivors out of 20)” value [5] is given as 7/20, the “reduction of median time until detection of symptom alleviation” value [4] is given as 0.98 days and the “reduction of median time until detectable symptom alleviation” value [4] is given as 0.57 days. For the same molecule, the Tmax ([6]; in vivo) was 1 to 2 h and the absolute bioavailability ([6]; orally administered, on average) was “about 2%”.
